These are literature values, as cited in patent US8858979B1, “Service induced byproducts for localized drug delivery in orthopaedic implants” (Clemson University, priority 2011, dated 2014).

The subject of the series is cell proliferation. Particulars: reported data, estimated.

Consider `NCCCC(O)(P(=O)([O-])O)P(=O)(O)O.[Na+]` [alendronate, alendronate sodium], for which the “concentration that can inhibit cell proliferation” value is reported as “about 10^−4 M”.
